Laboratory results as given in PMC11352370, “Live Cell Monitoring of Phosphodiesterase Inhibition by Sulfonylurea Drugs” (Biomolecules, 2024).

System: T1, PDE3B
T1 construct: Epac2-camps-PDE3B fusion biosensor
Assay: live-cell FRET with Epac-camps/PDE3B fusion biosensors in HEK293a cells
Type: cell-based

## CCCCNC(=O)NS(=O)(=O)c1ccc(C)cc1 [TOL, tolbutamide]
  IC50: ~700 µM
